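1) Cells in 96-well plates. 2) Compound, 48 h, 5 concentrations. 3) Linear interpolation between surrounding doses. 4) Unreached endpoint = highest concentration. The concentration for 50% growth inhibition is given as GI50. Definition used: TGI = concentration required for complete inhibition of growth.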
What was measured:
Assay in all cases: inhibition of tumour cell growth, NCI panel, 48 h
[1] = test system: SK-OV-3 ovarian
[2] = test system: RXF 393 renal
[3] = test system: HOP-92 NSCLC
[4] = test system: MDA-MB-435
[5] = test system: HCT-116 colon
[6] = test system: MALME-3M melanoma
[7] = test system: RPMI-8226 leukemia
[8] = test system: U251 CNS
[9] = test system: SK-MEL-2 melanoma
[10] = test system: A549 NSCLC

Compound	TGI [1] [µM]	TGI [2] [µM]	TGI [3] [µM]	TGI [4] [µM]	TGI [5] [µM]	TGI [6] [µM]	TGI [7] [µM]	TGI [8] [µM]	TGI [9] [µM]	TGI [10] [µM]	GI50 [1] [µM]	GI50 [2] [µM]	GI50 [4] [µM]	GI50 [5] [µM]	GI50 [6] [µM]	GI50 [8] [µM]	GI50 [9] [µM]	GI50 [7] [µM]	GI50 [10] [µM]	GI50 [3] [µM]
CC(CSc1nc2c(c(=N)n1-c1ccccc1)c(=S)n(-c1ccccc1)c(=S)n2-c1ccccc1)CN(C)C (centres undefined)	11.6	3.32	2.97	3.13	3.07	3.23	1.4	3.28	5.29	–	–	–	–	–	–	–	–	–	–	–
COc1cc(/C=C2\C(=O)N(c3ccc(Cl)cc3)C(c3ccccc3)S2(=O)=O)cc(OC)c1OC (centres undefined)	> 100	> 100	> 100	23.1	> 100	> 100	> 100	> 100	> 100	> 100	–	–	–	–	–	–	–	–	–	–
CCOC(=O)/C(=C/c1cn(C(C)=O)c2ccccc12)P(=O)(OC)OC	> 100	–	> 100	> 100	> 100	–	50.7	> 100	> 100	> 100	–	–	–	–	–	–	–	–	–	–
COc1ccc(C2CC(c3cccc(Nc4ccncc4)c3)=NN2c2ccccc2)cc1 (centres undefined)	20.9	3.02	–	3.49	3.29	3.08	–	3.8	5.01	–	5.53	1.55	1.78	1.68	1.62	1.94	2.39	–	–	–
CN(C)CCCNC(=O)N/N=C/c1ccccn1	> 10	> 10	> 10	–	> 10	> 10	> 10	–	–	> 10	–	–	–	–	–	–	–	–	–	–
COc1ccc(C=C2C(C)=NN(c3cccc(Cl)c3)C23C(Cl)C(=O)N3c2nc3ccccc3s2)cc1 (centres undefined)	89.7	28	24.6	66.8	28.8	–	> 100	40.9	38.9	–	–	–	–	–	–	–	–	–	–	–
O=C(CN1CCCC1)Nc1ccc2c(c1)C1Oc3ccccc3CC1CO2 (centres undefined)	> 100	–	> 100	55.4	> 100	33.4	78.9	56.5	50	> 100	–	–	–	–	–	–	–	–	–	–
COc1cc2c(cc1OCCN1CCN(CCOc3cc4c(cc3OC)C(=O)N3CCC[C@H]3C=N4)CC1)N=C[C@@H]1CCCN1C2=O	> 100	56.3	4.27	64.2	> 86.8	38.4	15.4	> 89.7	58.7	> 100	–	–	–	–	–	–	–	–	–	–
CCOC(=O)CC1C(C(=O)OCC)=Cn2c([nH]c3cccc4cccc2c43)=C1C(=O)OCC (centres undefined)	> 100	> 100	> 100	> 100	> 100	–	> 100	> 100	> 100	> 100	–	–	–	–	–	–	–	–	–	–
CC(=O)CCN1CC2CN=NC2(C#N)C1 (centres undefined)	> 100	> 100	> 76.3	> 100	> 100	> 100	> 100	> 100	> 100	> 100	> 100	–	–	–	–	–	–	> 100	–	–
COc1cc2c(cc1OC)C(C1CC1)ON(C)CC2 (centres undefined)	–	> 100	> 100	> 100	> 100	> 100	> 100	> 100	> 100	> 100	–	–	–	–	–	–	–	–	–	–
Cc1cc(C)c(C2=NO[C@@H]3[C@H]2C(=O)C=C2N(Cc4ccccc4)CCO[C@@]23O)c(C)c1	> 100	> 100	> 100	–	> 100	> 100	> 100	> 100	> 100	> 100	–	–	–	–	–	–	–	–	–	–
Nc1ncnc2c1ncn2CCCNO	> 100	> 100	> 100	> 100	> 100	> 100	> 100	> 100	> 100	> 100	–	–	–	–	–	–	–	–	–	–
Nc1ccc2c3c1cccc3c(=O)n1c3ccc(Cc4ccc5c(c4)nc4c6ccc(N)c7cccc(c(=O)n54)c76)cc3nc21	> 100	> 100	> 100	> 100	> 100	> 100	> 100	> 100	> 100	> 100	–	–	–	–	–	–	–	–	–	–
C=C(C)C1CCC2(C)C1CCC1(C)C2CCC2C3(C)C4OC(OC4=O)C(C)(C)C3CCC21C (centres undefined)	> 100	> 100	> 100	> 100	> 100	–	> 100	> 100	> 100	> 100	–	–	–	–	–	–	–	–	–	–
C[C@]12CC[C@H]3[C@@H](CCC4=C/C(=N/OCCN5CCCCC5)CC[C@@]43C)[C@@H]1CC[C@@H]2O	30.3	40.8	–	20.2	> 100	33.7	24.9	27.1	29.8	34.5	–	–	–	–	–	–	–	–	–	–
CN(C)c1ccc(/C=C2\N=C(c3ccccc3)N(c3nc4ccc(Sc5ccccc5)cc4[nH]3)C2=O)cc1	49.2	> 100	> 100	38.6	> 100	> 100	71.4	> 100	60.3	> 100	–	–	–	–	–	–	–	–	–	–
N=C(N)c1ccc(N=Nc2c(O)c(C(=O)Nc3ccccc3)cc3ccccc23)cc1	> 90.8	> 68.4	33.8	> 100	12.5	97.3	77.7	> 63.1	> 100	> 100	–	–	–	–	–	–	–	–	–	–
COC(=O)c1sc2c(Cl)c(Cl)sc2c1Cl	> 100	> 100	> 100	> 100	> 100	> 100	–	> 100	> 100	> 100	–	–	–	–	–	–	–	–	–	–
CC1(c2ccc(Cl)cc2)c2ccccc2C(=O)N1CCCN1C(=O)c2ccccc2C1=O (centres undefined)	> 100	94.5	> 100	> 100	37.6	–	> 100	> 100	46.3	> 100	–	–	–	–	–	–	–	–	–	–
CC(C)C(Nc1c2ccccc2[n+](C)c2ccccc12)C(=O)O (centres undefined)	> 100	> 100	–	–	> 100	> 100	> 100	> 100	> 100	> 100	–	–	–	–	–	–	–	–	–	–
COc1ccccc1-c1cc(=O)c2cccnc2[nH]1	> 100	> 100	60.2	60.5	> 100	> 100	> 100	> 100	> 100	> 100	–	–	–	–	–	–	–	–	–	–

Compound	TGI [1] [µM]	TGI [2] [µM]	TGI [3] [µM]	TGI [4] [µM]	TGI [5] [µM]	TGI [6] [µM]	TGI [7] [µM]	TGI [8] [µM]	TGI [9] [µM]	TGI [10] [µM]	GI50 [1] [µM]	GI50 [2] [µM]	GI50 [4] [µM]	GI50 [5] [µM]	GI50 [6] [µM]	GI50 [8] [µM]	GI50 [9] [µM]	GI50 [7] [µM]	GI50 [10] [µM]	GI50 [3] [µM]
Cc1cc(S(=O)(=O)NC2=NCc3c(F)cccc3N2)c(S)cc1Cl	–	> 100	> 100	> 100	> 100	> 100	> 100	> 100	> 100	> 100	–	–	–	–	–	–	–	–	–	–
Oc1ccccc1/C=N/c1nc(-c2ccccc2)cs1	> 100	32.6	> 100	> 100	34.4	> 100	> 100	> 100	> 100	> 100	> 100	10.4	29.7	12.4	47.2	28.5	> 100	27.5	> 100	8.22
CC(=O)N1CN2C(=O)CCC2c2cc(C)ccc21 (centres undefined)	> 100	> 100	> 100	> 100	> 100	> 100	> 100	> 100	> 100	> 100	–	–	–	–	–	–	–	–	–	–
N#CC(c1cc(Cl)ncn1)c1nc2cc(C(F)(F)F)ccc2s1 (centres undefined)	53.7	19.7	5.92	> 100	8.9	17.5	> 100	17.1	–	> 100	–	–	–	–	–	–	–	–	–	–
CC1=NN(c2cc(Cl)c(S(=O)(=O)O)cc2Cl)C2(C1)C(Cl)C(=O)N2c1nc2ccccc2s1 (centres undefined)	–	> 100	> 100	> 100	> 100	> 100	> 100	> 100	> 100	> 100	–	–	–	–	–	–	–	–	–	–
N#Cc1cc2c(n(C3OC(CO)C(O)C(O)C3O)c1=S)CCC2 (centres undefined)	–	> 100	> 100	> 100	> 100	> 100	> 100	> 100	> 100	> 100	–	–	–	–	–	–	–	–	–	–
Cc1cc(Br)c(O)c(-c2cscn2)c1	> 100	–	43.1	41.9	25.2	43.7	20.3	–	35.1	50.4	–	–	–	–	–	–	–	–	–	–
O=c1[nH]c2ccccc2c(=O)n1/N=C\c1ccccc1O	> 100	–	> 100	> 100	> 100	–	> 100	> 100	> 100	> 100	–	–	–	–	–	–	–	–	–	–
CN=C1C=C(/N=C2/C=C(N/C(=C\C#N)C(C)(C)O)OC2(C)C)OC1(C)C	> 73.6	–	> 71.5	> 100	69.4	> 100	> 69.6	> 100	> 82.8	> 100	–	–	–	–	–	–	–	–	–	–
COc1cc(CNc2nc3c(NC(C)=O)cc(C(F)(F)F)cc3nc2-c2ccccc2)cc(OC)c1OC	> 100	> 100	> 100	–	> 100	> 100	> 100	–	> 100	> 100	–	–	–	–	–	–	–	–	–	–
Nc1ncnc2c1ncn2C1C(O)C=C(CO)C1O (centres undefined)	> 625	–	> 625	–	> 625	> 625	> 625	–	> 625	> 625	–	–	–	–	–	–	–	–	–	–
CCn1c(-c2cc3ccccc3cc2OC(C)=O)n[nH]c1=S	> 100	33.5	> 100	> 100	41.7	–	44.6	51.4	41.3	–	–	–	–	–	–	–	–	–	–	–
CCOC(=O)CCC(NC(=O)c1ccc(NCc2ccc3nc(OC)c(OC)nc3c2)c2ccccc12)C(=O)OCC (centres undefined)	> 100	> 100	97.7	> 100	> 100	> 100	–	> 100	> 100	> 100	–	–	–	–	–	–	–	–	–	–
CN1CCN(Cc2ccc(C(=S)Nc3ccccc3)s2)CC1	> 100	–	–	> 100	> 100	> 100	> 100	> 100	> 100	> 100	–	–	–	–	–	–	–	–	–	–
c1csc(-c2cc(-c3ccsc3)cs2)c1	> 100	> 100	> 100	> 100	> 100	–	> 100	> 100	> 100	> 100	–	–	–	–	–	–	–	–	–	–
Nc1c(-c2ccccc2)c2ccc([N+](=O)[O-])cc2c(=O)n1-c1cccc(C(=O)O)c1	> 100	> 100	–	> 100	> 100	–	> 100	> 100	> 100	> 100	–	–	–	–	–	–	–	–	–	–
CCCCCCCCCCCCCCCCOC[C@H](COC(c1ccccc1)(c1ccccc1)c1ccccc1)O[P+](=S)OC (some centres undefined)	> 100	> 100	> 100	> 100	> 100	–	> 100	> 100	> 100	> 100	–	–	–	–	–	–	–	–	–	–
C[N+](C)([O-])C12CC3CC(CC(C3)C1)C2	> 100	> 100	–	> 100	91.2	> 100	93.6	> 100	> 100	> 100	–	–	–	–	–	–	–	–	–	–
CC1OC23CCCCC2C(C#N)(C#N)C1(C#N)C(=N)O3 (centres undefined)	> 100	44.5	29.3	50.9	36.2	43.5	–	71.5	43.5	> 100	–	–	–	–	–	–	–	–	–	–
CCCCCCCCCCCCCCCC[N+](C)(C)CCl	27.7	–	–	> 39.2	4.98	7.38	5.16	3.04	49.8	22.3	–	–	–	–	–	–	–	–	–	–
O=C(Nc1nnc(-c2ccccc2)o1)C(SC(=S)N1CCCC1)c1ccccc1 (centres undefined)	> 100	> 100	–	> 100	79.5	> 100	> 100	> 100	> 100	> 100	–	–	–	–	–	–	–	–	–	–
COC1=C(OC)C(=O)C(Cc2c(-c3ccccc3)nc3sc(Cl)cn23)=C(C)C1=O	37.8	33.3	–	33.1	39.9	33.2	34.9	40.1	36.5	52	–	–	–	–	–	–	–	–	–	–

Reference: PubChem BioAssay (NCI)
